Where “and” joins values, the source holds several entries; their conditions need not be identical. Equal values may be shown once. Calls of active or inactive are those of the source.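 The calls were made as follows: active = IC50 under 30000 nM, about half a log past the top tested dose; inactive = the rest.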
biological target: Baculoviral IAP repeat-containing protein 2 (Homo sapiens) (UniProt Q13490); assay: cIAP1 BIR3–SMAC binding inhibitors, SAR follow-up, biochemical (AID 1508599); settings: cIAP1 BIR3 / rhodamine-SMAC peptide fluorescence polarization
Sequence (Q13490 whole entry, looked up): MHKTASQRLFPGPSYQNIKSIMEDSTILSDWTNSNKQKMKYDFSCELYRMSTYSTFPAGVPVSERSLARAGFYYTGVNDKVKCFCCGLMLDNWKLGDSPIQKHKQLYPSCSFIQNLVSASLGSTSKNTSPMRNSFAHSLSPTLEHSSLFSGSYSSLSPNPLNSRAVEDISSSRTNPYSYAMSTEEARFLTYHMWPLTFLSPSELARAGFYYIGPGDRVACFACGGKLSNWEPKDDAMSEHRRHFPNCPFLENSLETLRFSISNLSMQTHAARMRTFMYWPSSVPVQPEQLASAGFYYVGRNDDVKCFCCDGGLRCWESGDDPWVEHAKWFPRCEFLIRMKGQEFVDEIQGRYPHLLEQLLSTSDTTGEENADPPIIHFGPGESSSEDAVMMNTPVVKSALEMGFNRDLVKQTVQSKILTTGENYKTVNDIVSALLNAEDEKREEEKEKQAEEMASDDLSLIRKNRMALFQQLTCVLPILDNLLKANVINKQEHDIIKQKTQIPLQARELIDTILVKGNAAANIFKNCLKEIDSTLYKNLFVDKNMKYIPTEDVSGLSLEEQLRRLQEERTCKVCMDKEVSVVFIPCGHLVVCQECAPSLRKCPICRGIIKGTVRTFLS

| IC50 | SMILES |
| --- | --- |
| > 100000 nM (inactive) | CN[C@@H](C)C(=O)N[C@H]1Cc2cc(O)c(O)cc2[C@H]2CC(C)(C)C(C(=O)N[C@@H]3CCCc4ccccc43)N2C1=O (some centres not stated) |
| 113 nM | CN[C@@H](C)C(=O)N[C@H]1CCN[C@H]2CCC(C(=O)N[C@@H]3CCCc4ccccc43)N2C1=O (some centres not stated) |
| 210 nM | CN[C@@H](C)C(=O)N[C@H]1CCO[C@H]2CC(C)(C)[C@@H](C(=O)N[C@@H]3CCCc4ccccc43)N2C1=O |
| 294 nM | CN[C@@H](C)C(=O)N[C@H]1CCO[C@H]2CCC(C(=O)NC(c3ccccc3)c3ccccc3)N2C1=O (some centres not stated) |
| 14900 nM | CN[C@@H](C)C(=O)N[C@H]1Cc2cccc(O)c2[C@H]2CC(C)(C)C(C(=O)N[C@@H]3CCCc4ccccc43)N2C1=O (some centres not stated) |
| 8440 nM | CN[C@@H](C)C(=O)N[C@H]1CCO[C@H]2c3ccccc3C(C(=O)N[C@@H]3CCCc4ccccc43)N2C1=O (some centres not stated) |
| 740 nM | CN[C@@H](C)C(=O)N[C@H]1CCO[C@H]2CC[C@@H](C(=O)N[C@@H]3CCCc4ccccc43)N2C1=O |
| > 100000 nM (inactive) | CN[C@@H](C)C(=O)N[C@H]1CCS(=O)(=O)[C@H]2CC(C)(C)[C@@H](C(=O)N[C@@H]3CCCc4ccccc43)N2C1=O |
| 272 nM and 37 nM | CN[C@@H](C)C(=O)N[C@H]1CCCN(C(C)=O)C2CCC(C(=O)N[C@H]3CCCc4ccccc43)N2C1=O (some centres not stated) |
| 21100 nM | CN[C@@H](C)C(=O)N[C@H]1CCCN[C@H]2CCC(C(=O)Nc3cccc4ccccc34)N2C1=O (some centres not stated) |
| 140 nM | CN[C@@H](C)C(=O)N[C@H]1CCS[C@H]2CC[C@@H](C(=O)N[C@@H]3CCCc4ccccc43)N2C1=O |
| 1000 nM | CN[C@@H](C)C(=O)N[C@H]1CCS[C@H]2CC[C@H](C(=O)N[C@@H]3CCCc4ccccc43)N2C1=O |

The remaining lines, values behind:

| SMILES | IC50 |
| --- | --- |
| CN[C@@H](C)C(=O)N[C@H]1CCO[C@H]2CC(C)(C)C(C(=O)Nc3ccccc3SSc3ccccc3NC(=O)C3N4C(=O)[C@@H](NC(=O)[C@H](C)NC)CCO[C@H]4CC3(C)C)N2C1=O (some centres not stated) | 505 nM |
| CN[C@@H](C)C(=O)N[C@H]1CCO[C@H]2CC[C@H](C(=O)n3ccc4ccccc43)N2C1=O | 147 nM |
| CN[C@@H](C)C(=O)N[C@@H]1C(=O)N2C(C(=O)Nc3cccc4ccccc34)CC[C@@H]2O[C@@H]1C (some centres not stated) | 78 nM |
| CN[C@@H](C)C(=O)N[C@H]1CCS(=O)(=O)[C@H]2CC[C@H](C(=O)N[C@@H]3CCCc4ccccc43)N2C1=O | > 100000 nM (inactive) |
| CN[C@@H](C)C(=O)N[C@H]1CCS[C@H]2CCC(C(=O)N[C@H]3CCCc4ccccc43)N2C1=O (some centres not stated) | 157 nM |
| CN[C@@H](C)C(=O)N[C@H]1CCCN[C@H]2CCC(C(=O)N[C@H]3CCCc4ccccc43)N2C1=O (some centres not stated) | 789 nM |
| CN[C@@H](C)C(=O)N[C@H]1CCO[C@H]2CC3(CCCC3)C(C(=O)N[C@@H]3CCCc4ccccc43)N2C1=O (some centres not stated) | 1350 nM |
| CN[C@@H](C)C(=O)N[C@H]1CCS(=O)(=O)[C@H]2CC[C@@H](C(=O)N[C@@H]3CCCc4ccccc43)N2C1=O | 11600 nM |
| CN[C@@H](C)C(=O)N[C@H]1CCO[C@H]2CCC(C(=O)N[C@H]3CCCc4ccccc43)N2C1=O (some centres not stated) | 72 nM |
| CN[C@@H](C)C(=O)N[C@H]1CCO[C@H]2CC[C@@H](C(=O)Nc3cccc4ccccc34)N2C1=O | 47 nM |
| CC(=O)N(C)[C@@H](C)C(=O)N[C@H]1CCCN(C(C)=O)[C@H]2CCC(C(=O)Nc3cccc4ccccc34)N2C1=O (some centres not stated) | 6850 nM |
| CN[C@@H](C)C(=O)N[C@@H]1C(=O)N2C(C(=O)NC(c3ccccc3)c3ccccc3)CC[C@@H]2O[C@@H]1C (some centres not stated) | 235 nM |
| CN[C@@H](C)C(=O)N[C@H]1CCO[C@H]2CC[C@@H](C(=O)N[C@@H]3CCOc4ccccc43)N2C1=O | 1300 nM |
| CN[C@@H](C)C(=O)N[C@H]1CCSC2CCCC(C(=O)N[C@@H]3CCCc4ccccc43)N2C1=O (some centres not stated) | 363 nM and 2520 nM and 605 nM |
| CN[C@@H](C)C(=O)N[C@H]1CCO[C@H]2CCC(C(=O)Nc3cccc4ccccc34)N2C1=O (some centres not stated) | 263 nM |
| CN[C@@H](C)C(=O)N[C@H]1Cc2c([nH]c3ccccc23)[C@H]2CCC(C(=O)N[C@@H]3CCCc4ccccc43)N2C1=O (some centres not stated) | 93 nM |
| CN[C@@H](C)C(=O)N[C@H]1CC(=O)N[C@H]2CC(C)(C)C(C(=O)N[C@@H]3CCCc4ccccc43)N2C1=O (some centres not stated) | 2000 nM and 1790 nM |
| CN[C@@H](C)C(=O)N[C@H]1CCO[C@H]2CC[C@@H](C(=O)n3ccc4ccccc43)N2C1=O | 1210 nM |
| CN[C@@H](C)C(=O)N[C@H]1Cc2cc(O)ccc2[C@H]2CC(C)(C)C(C(=O)N[C@@H]3CCCc4ccccc43)N2C1=O (some centres not stated) | inactive |
| CN[C@@H](C)C(=O)N[C@H]1CCO[C@H]2CC[C@H](C(=O)N[C@@H]3CCOc4ccccc43)N2C1=O | > 100000 nM (inactive) |
